# According to patent US10828262B2, “Biomembrane, closed structure with biomembrane characteristics or cellular compartment derived from natural sources and/or self-assembly techniques, preparation method and applications thereof” (priority 2017, dated 2020):
# Key:
# [1] = In vivo half-life period of calcitonin after vein injection; design: species or system new zealand white rabbit; conditions: rabbit, injection through vein
# [2] = tested on: human hepatoma cell line BEL-7402; conditions: BALB/C nude mouse
# Excerpt: (§1) • (1) Inoculate human hepatoma cell line BEL-7402 below back skin of BALB/C nude mouse.
# [3] = Body weight of tumor model mice; format: in vivo, BALB/C nude mouse; conditions: BEL-7402 model nude mice
# Excerpt: as §1
# [4] = 0.2 ml intraperitoneal injection every day, after 10 d
compound,measurement,setting,value
calcitonin [ordinary calcitonin],in vivo half-life period,[1],2 h
"COc1cccc2c1C(=O)c1c(O)c3c(c(O)c1C2=O)C[C@@](O)(C(=O)CO)C[C@@H]3O[C@H]1C[C@H](N)[C@H](O)[C@H](C)O1 [Adriamycin amycin, adriamycin]",Tumor After treatment,[2]; [4],50.17 mm^3
same,Tumor Before treatment,[2]; liver-implanted tumor,42.93 mm^3
same,Weight Before treatment,[3],20.03 g
same,Weight After treatment,[3]; [4],20.1 g
